The structures appear in SMILES notation. “And” between values parts separate entries of the source, which are not always exact repeats. Equal values may be shown once.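 Results reflect a 48-hour exposure of cells in 96-well plates to compound at five concentrations. GI50: concentration for 50% inhibition of growth. The concentration for full growth arrest is given as TGI.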

Common to all, as to test: growth of human tumour cells (NCI), 48 h
The test system of test [1] is A498 renal.
Test [2] deals with NCI-H522 lung.
Test [3] has as its system HCT-116 colon.
The subject of test [4] is HL-60(TB) leukemia.
The subject of test [5] is NCI/ADR-RES ovarian.
Test [6] has as its system RPMI-8226 leukemia.
In test [7] the test system is UACC-62 melanoma.
Test [8] relates to HOP-92 NSCLC.
The subject of test [9] is LOX IMVI melanoma.
Test [10] deals with NCI-H226 lung.

With `CCN1CCN(Cc2ccc(Nc3ncc(F)c(-c4cc(F)c5nc(C)n(C(C)C)c5c4)n3)nc2)CC1`, the GI50 is 1.05 µM in test [1]; 8.92 µM in test [2]; 0.336 µM in test [3]; 2.82 µM in test [4]; 10.4 µM in test [5]; 6.68 µM in test [6]. In addition, the GI50 is 6.39 µM in test [7], 0.0337 µM in test [8], 1.41 µM in test [9] and 0.109 µM in [10]. Further, the TGI was found to be 50 µM in [1]; 18.1 µM in test [2]; 11.7 µM in [3]; 13.2 µM in test [4]; 26.2 µM in test [5]; 19.1 µM in test [6]. For the same molecule, the TGI in test [7] is 14.2 µM; in test [8], 50 µM; in test [9] it was 10.9 µM; in test [10] it was 25.2 µM.
Turning to `Nc1nc2ccc(CNc3ccc(C(=O)NC(CC(=O)O)C(=O)O)cc3)cc2c(=O)[nH]1` (stereo not drawn), the GI50 in test [1] was above 38.9 µM; in test [2] it was 14.4 µM; in test [3], 0.478 µM; in [4] it was 1.13 µM; in test [5], 2.71 µM; in test [6], 9.23 µM. The GI50 in test [7] is 5.89 µM; in test [8], above 51 µM; in test [9] it was 0.472 µM; in test [10], above 65.3 µM. Further, the TGI in test [1], in [2], in test [3], in [4], in test [5] and in test [6] was above 100 µM in each case. The TGI in test [7], in [8], in test [9] and in [10] was above 100 µM throughout.
Turning to `Cc1c(O)cccc1C(=O)N[C@@H](CSc1ccccc1)[C@H](O)CN1C[C@H]2CCCC[C@H]2C[C@H]1C(=O)NC(C)(C)C`, the GI50 in [1] is 10.5 µM and 4.26 µM; in test [2], 3.06 µM and 2.94 µM; in test [3] it was 4.27 µM and 5.97 µM; in test [4], 2.95 µM and 3.43 µM; in test [5] it was 4.87 µM and 6.17 µM; in test [6], 2.23 µM and 2.01 µM. Also, the GI50 is 5.79 µM and 5.8 µM in test [7]; 2.47 µM and 6.25 µM in test [8]; 5.27 µM and 5.39 µM in [9]; 4.84 µM and 5.57 µM in test [10]. Besides, the TGI in test [1] was 24.9 µM and 15.3 µM; in test [2], 11.7 µM and 13.4 µM; in test [3], 16 µM and 17.9 µM; in test [4], > 26 µM and 13.6 µM; in test [5] it was 32.1 µM and 27.1 µM; in test [6] it was 4.69 µM and 7.21 µM. Moreover, the TGI in [7] was 18.8 µM and 17.6 µM; in [8], 7.62 µM and 25.2 µM; in [9], 18.8 µM and 15.8 µM; in [10], 14 µM and 16.5 µM.
Take `Cc1[nH]c(C(=O)Nc2cccc(OC3CCNCC3)c2)c(Cl)c1Cl`: the GI50 in [1] is 1.89 µM; in test [2], 1.86 µM; in test [3] it was 1.65 µM; in test [4], 1.91 µM; in [5], 1.84 µM; in [6] it was 2.05 µM. For the same molecule, the GI50 in [7] is 1.81 µM; in [8], 1.32 µM; in test [9], 1.66 µM; in test [10], 2.43 µM. Further, the TGI was 4.6 µM in test [1]; 4.02 µM in test [2]; 3.24 µM in test [3]; 4.08 µM in test [4]; 3.47 µM in test [5]; 4.59 µM in test [6]. In addition, the TGI is 3.45 µM in [7], 4 µM in test [8], 3.16 µM in [9] and 6.78 µM in [10].
With `CCCCCCCCCCCCC(O)C1CCC(C(O)CCCCC(O)CCCCCC2CC(CC(C)=O)C(=O)O2)O1` (stereo not drawn), the GI50 is 5.64 µM in test [1]; 1.93 µM in [3]; 1.29 µM in test [4]; 1.28 µM and 0.367 µM in [6]; 1.38 µM in test [7]; 3.38 µM in [8]. In addition, the GI50 was 1.06 µM in [9] and 0.0401 µM in test [10]. Besides, the TGI in test [1] is 20.6 µM; in test [2] it was 19.9 µM; in [3], 14.8 µM; in test [4], 4.02 µM and 2.75 µM; in test [5], 2.3 µM; in test [6] it was 4.73 µM and 18.5 µM. Also, the TGI is 3.66 µM and 16.3 µM in test [7]; 9.29 µM and 12.5 µM in test [8]; 2.24 µM and 9.49 µM in [9]; 4.19 µM and 12.7 µM in test [10].
`COc1ccccc1CNCCCN1C(=O)c2ccc3c4c(ccc(c24)C1=O)C(=O)N(CCCNCCCCNCCCN)C3=O`: the GI50 in test [1] was 1.34 µM; in test [2], 0.176 µM; in [3] it was 0.315 µM; in test [4] it was 0.409 µM; in [5], 2.02 µM; in [6], 0.626 µM. In addition, the GI50 is 0.362 µM in test [7], 0.67 µM in test [8], 0.3 µM in test [9] and 0.911 µM in test [10]. Moreover, the TGI in [1] is 3.14 µM; in test [2] it was 0.362 µM; in test [3] it was 1.16 µM; in test [4], 1.69 µM; in test [5] it was 7.7 µM; in test [6], 10.8 µM. The TGI was found to be 1.69 µM in test [7], 5.23 µM in test [8], 1.57 µM in [9] and 2.71 µM in test [10].
Turning to `COc1cc(/C=C2\CCC/C(=C\c3cc(CN4CCCC4)c(O)c(OC)c3)C2=O)cc(CN2CCCC2)c1O`, the GI50 was 2.94 µM in [1]; 2.5 µM in [2]; 1.66 µM in [3]; 2.15 µM in [4]; 3.47 µM in [5]; 2.16 µM in [6]. Also, the GI50 in [7] is 3.45 µM; in test [8], 2.11 µM; in [9] it was 1.74 µM; in test [10], 2.57 µM. For the same molecule, the TGI in test [1] is 8.54 µM; in [2] it was 7.92 µM; in [3] it was 3.36 µM; in test [4] it was 5.75 µM; in [5] it was above 100 µM; in [6], 7.58 µM. Besides, the TGI in [7] is 12.9 µM; in test [8], 11.8 µM; in test [9], 3.36 µM; in test [10], 6.84 µM.

Source of the values: PubChem BioAssay (NCI).
